Measured values taken from US20100137387A1, “BETA-KETO-AMIDE DERIVATIVES USEFUL AS ION CHANNEL MODULATORS” (NeuroSearch A/S, priority 2007, published 2010).

Legend:
BK channels = target: T1, BK channels (Homo sapiens, UniProt Q12791); assay: BK channel activation, two-electrode voltage clamp in Xenopus laevis oocytes; type: cell-based; conditions: BK channels heterologously expressed in Xenopus laevis oocytes, 0.01-31.6 μM compound
T1 construct: expressed in transfected cells; host or cells: Xenopus laevis oocytes
Method: In this example the BK channel opening activity of Compound 4 (i.e. N-[5-Chloro-2-(1H-tetrazol-5-yl)-phenyl]-3-(4-chloro-3-trifluoromethyl-phenyl)-3-oxo-propionamide) is determined using BK channels heterologously expressed in Xenopus laevis oocytes.
The electrical current through the BK channel is measured using conventional two-electrode voltage clamp. BK currents are activated by repeating ramp protocols. In brief, the membrane potential is continuously changed from −120 mV to +120 mV within 2 s. The threshold for BK activation is approximately +30 mV under control conditions. Compounds are applied for 100 s during which the ramp protocol is repeated 10 times with 10 s intervals. In between the ramp protocols the membrane potential is clamped at −80 mV. […]
In order to evaluate the ability of the compounds to shift the BK activation curve towards lower membrane potentials, the BK current was transformed into conductance by using Ohm's law g=I/(Ememb−Erev), where g is the conductance, I is the current, Ememb is the membrane potential and Erev is the reversal potential. […] The control conductance level at a membrane potential of +100 mV was calculated, and the compound effect was evaluated as the potential difference, ΔV, to the membrane potential at which the same conductance level was obtained in the presence of compound. […]

chloride channel = assay: In vitro human erythrocyte chloride conductance; type: cell-based; conditions: suspensions of human erythrocytes; from Cl- netfluxes and membrane potentials; read-out: KD-value (chloride channel blocking activity, membrane Cl-conductance)
Excerpt: In this example the chloride channel blocking activity of an acetamide derivative representative of the invention, i.e. Compound 3 (3-(3,5-Bis-trifluoromethyl-phenyl)-3-oxo-N-[3-(1H-tetrazol-5-yl)-4′-trifluoromethoxy-biphenyl-4-yl]-propionamide), has been determined.
All dose-response experiments were therefore performed by concomitant measurements of conductive netfluxes of Cl^− (Jcl) and membrane potentials (Vm) in suspensions of erythrocytes as described by Bennekou et al. (Bennekou P and Christophersen P: Flux ratio of Valinomycin-Mediated K^+ Fluxes across the Human Red Cell Membrane in the presence of the Protronophore CCCP; J. Membrane Biol. 1986 93 221-227).
The membrane Cl-conductances (GCl) were calculated according to Hodgkin et al. (Hodgkin A L and Huxley A F: The components of membrane conductance in the giant axon of Loligo; J. Physiol. Lond. 1952 116 449-472) using the following equation: […]
where F is the Faraday constant and ECl is the Nernst potential for the Cl-ion.

T1 sequence (Q12791 whole entry): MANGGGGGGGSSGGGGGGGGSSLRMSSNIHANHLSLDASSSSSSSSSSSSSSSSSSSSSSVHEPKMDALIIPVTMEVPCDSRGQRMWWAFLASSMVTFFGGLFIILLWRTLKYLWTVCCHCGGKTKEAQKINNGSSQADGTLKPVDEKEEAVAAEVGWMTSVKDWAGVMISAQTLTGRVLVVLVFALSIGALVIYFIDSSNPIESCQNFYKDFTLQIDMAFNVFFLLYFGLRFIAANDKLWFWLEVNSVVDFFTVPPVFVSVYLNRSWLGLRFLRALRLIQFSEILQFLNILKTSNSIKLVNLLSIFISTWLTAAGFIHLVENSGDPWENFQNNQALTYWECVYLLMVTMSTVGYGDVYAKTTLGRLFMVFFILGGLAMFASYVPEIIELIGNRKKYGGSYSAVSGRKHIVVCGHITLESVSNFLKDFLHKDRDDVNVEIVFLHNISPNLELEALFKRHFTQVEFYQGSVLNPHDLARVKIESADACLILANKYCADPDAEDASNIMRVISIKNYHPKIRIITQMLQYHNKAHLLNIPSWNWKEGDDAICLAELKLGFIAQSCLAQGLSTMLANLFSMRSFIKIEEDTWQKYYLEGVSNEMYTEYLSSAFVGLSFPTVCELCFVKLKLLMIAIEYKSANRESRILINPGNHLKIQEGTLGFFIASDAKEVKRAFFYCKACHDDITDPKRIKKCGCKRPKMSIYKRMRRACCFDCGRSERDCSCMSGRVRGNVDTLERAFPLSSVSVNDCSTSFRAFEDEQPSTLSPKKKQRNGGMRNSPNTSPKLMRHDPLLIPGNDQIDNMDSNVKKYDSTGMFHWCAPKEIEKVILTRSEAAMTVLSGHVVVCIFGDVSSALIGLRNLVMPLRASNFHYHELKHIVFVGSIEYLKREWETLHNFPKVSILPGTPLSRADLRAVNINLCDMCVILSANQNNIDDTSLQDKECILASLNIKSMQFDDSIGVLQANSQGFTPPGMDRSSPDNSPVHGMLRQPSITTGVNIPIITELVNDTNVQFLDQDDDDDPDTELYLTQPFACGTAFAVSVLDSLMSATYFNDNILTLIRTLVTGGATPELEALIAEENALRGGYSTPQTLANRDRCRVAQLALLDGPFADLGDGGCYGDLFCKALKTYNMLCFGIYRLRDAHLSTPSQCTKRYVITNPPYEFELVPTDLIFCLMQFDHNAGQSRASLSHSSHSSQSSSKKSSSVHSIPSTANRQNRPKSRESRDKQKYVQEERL

SMILES | ΔVmax (maximal left shift of the BK activation curve) (BK channels; fitted to sigmoidal logistic equation) [mV] | EC50 (BK channels; ΔV vs. control conductance at +100 mV, read-out: EC50 for the left-shift of the BKCa-activation curve) [nM] | Kd (chloride channel) [nM]
O=C(CC(=O)c1ccc(Cl)c(C(F)(F)F)c1)Nc1cc(Cl)ccc1-c1nnn[nH]1 [Compound 4, N-[5-Chloro-2-(1H-tetrazol-5-yl)-phenyl]-3-(4-chloro-3-trifluoromethyl-phenyl)-3-oxo-propionamide] | −123 | 1800 | –
O=C(CC(=O)c1cc(C(F)(F)F)cc(C(F)(F)F)c1)Nc1ccc(-c2ccc(OC(F)(F)F)cc2)cc1-c1nnn[nH]1 [Compound 3, 3-(3,5-Bis-trifluoromethyl-phenyl)-3-oxo-N-[3-(1H-tetrazol-5-yl)-4′-trifluoromethoxy-biphenyl-4-yl]-propionamide] | – | – | 210
